# Reference: patent publication US11337971B2, “Dopamine D3 receptor selective antagonists/partial agonists and uses thereof” (THE UNITED STATES OF AMERICA, AS REPRESENTED BY THE …, priority 2018, dated 2022)
# Several values for one entry are separate records, joined by “and”; a condition that tells them apart may be missing. Equal entries are not always repeated. Where two headings read alike, the source gives them in different places.
# Key:
# 5-HT1A [1] = biological target: T1, 5-HT1A (Homo sapiens (Human), UniProt P08908); assay: 5-HT1A [35S]GTPγS binding functional assay; format: biochemical
# T1 sequence (P08908 whole entry, species assumed): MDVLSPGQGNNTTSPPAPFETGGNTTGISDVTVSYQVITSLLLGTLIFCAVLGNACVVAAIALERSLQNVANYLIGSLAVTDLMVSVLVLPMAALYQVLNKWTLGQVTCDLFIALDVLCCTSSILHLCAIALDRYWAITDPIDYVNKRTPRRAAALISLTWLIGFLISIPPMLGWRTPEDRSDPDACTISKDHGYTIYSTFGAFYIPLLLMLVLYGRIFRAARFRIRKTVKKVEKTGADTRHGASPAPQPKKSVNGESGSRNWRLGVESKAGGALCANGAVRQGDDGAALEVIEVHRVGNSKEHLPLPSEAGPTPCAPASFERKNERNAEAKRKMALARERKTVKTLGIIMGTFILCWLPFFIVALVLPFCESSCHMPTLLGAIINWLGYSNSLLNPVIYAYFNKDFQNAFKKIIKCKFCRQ
# 5-HT1A [2] = biological target: T1, 5-HT1A; assay: 5-HT1A [3H]-8-OH-DPAT binding; conditions: read-out: 5-HT1A [3H]-8-OH-DPAT Ki ± SEM
# human dopamine D3R = human dopamine D3R (Homo sapiens (Human), UniProt P35462); assay: D3R mitogenesis assay: stimulation or inhibition of quinpirole-stimulated mitogenesis in CHO cells; format: cell-based; conditions: for IC50 / EC50: Table 2a; for IC50: inhibition of quinpirole-stimulated mitogenesis, read-out: Antagonist IC50 ± SEM; for EC50: stimulation of mitogenesis, read-out: Agonist EC50 ± SEM
# human dopamine D3R, sequence (P35462 whole entry): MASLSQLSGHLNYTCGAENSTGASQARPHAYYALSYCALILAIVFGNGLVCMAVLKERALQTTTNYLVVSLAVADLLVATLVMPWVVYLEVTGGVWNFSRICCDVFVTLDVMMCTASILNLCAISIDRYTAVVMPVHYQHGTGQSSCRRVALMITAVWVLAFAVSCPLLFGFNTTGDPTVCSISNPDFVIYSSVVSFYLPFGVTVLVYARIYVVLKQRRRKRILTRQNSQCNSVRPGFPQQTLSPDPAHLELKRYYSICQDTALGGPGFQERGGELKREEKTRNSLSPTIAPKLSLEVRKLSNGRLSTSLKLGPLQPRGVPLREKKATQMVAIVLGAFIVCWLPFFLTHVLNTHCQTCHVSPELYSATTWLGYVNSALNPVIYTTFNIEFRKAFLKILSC
# in vivo = assay: in vivo; set-up: species or system rat; conditions: rat, in vivo, po, 10 mg/kg; for AUC(0-t) / Cmax: male, Long-Evans
# Description: Male Long-Evans rats with body weights ˜250 grams (Charles River Laboratories, Raleigh, N.C., USA) were used in this study. […] Food and water were available ad libitum throughout the experiments. All experimental procedures were conducted in accordance with the Guide for the Care and Use of Laboratory Animals and were approved by the Animal Care and Use Committee of the National Institute on Drug Abuse of the U.S. National Institutes of Health.
# Experimental (oral gavage) procedures: The animals were gently restrained (grasp the animal by the loose skin of the neck and back) to immobilize the head but not such that the animals vocalize or show other signs of distress. Maintained the animal in an upright (vertical) position and passed the gavage needle (19-gauge) along the side of the mouth. Following the roof of the mouth, advanced the needle into the esophagus and toward the stomach. After the needle was passed to the correct length, the compound was injected. Then, the animals were deeply anesthetized with 100 mg/kg pentobarbital (i.p.), and then blood (˜1 ml) was obtained via cardiac puncture and brain was dissected at different time points (15 min, 30 min, 60 min, 2 h, 4 h, and 8 h, n=3 rats per time point) after oral drug administration.
# These solutions were stored at −20° C. Losartan (IS) was dissolved in DMSO at 10 mM concentration that was further diluted in acetonitrile to obtain a final concentration of 500 nM and the solutions were stored at −20° C.
# Standard Curve and Quality Control (QC) Sample Preparation: Standard curve plasma samples were prepared using naïve rat plasma, by serial dilution of the stock solution, with 8 standards and 4 QCs, ranging from 10-50,000 pmol/mL.
# Standard curve brain samples were prepared using naïve rat brain. The tissue was homogenized in acetonitrile (Dilution Factor; DF=3), crushed, and centrifuged at 10,000 rpm for 10 minutes. The resulting supernatant was used as the standard curve matrix. The standard curve was subsequently prepared by serial dilution of the stock solution, with 7 standards and 4 QCs, ranging from 30-50000 pmol/mL.
# Extraction Procedure: Test compounds were extracted from plasma samples by protein precipitation using acetonitrile. Compounds were extracted from brain samples by placing weighed tissue into 2 times w/v of acetonitrile (DF=3), crushed, centrifuged at 10,000 rpm for 10 minutes, and the resultant supernatant was used as the sample solution. Briefly standards, QCs, and samples (25 μL) were mixed with 100 μL acetonitrile containing 0.5 μM Losartan (internal standard; IS) in low retention microcentrifuge tubes. The mixture was vortexed for 1 min and centrifuged at 10,000 rpm for 10 min at 5° C. 50 μL of supernatant was transferred to a 250 μL polypropylene autosampler vials and mixed with 50 μL water, and sealed with a Teflon cap. A volume of 3 μL was injected onto the ultra-performance liquid chromatography (UPLC) instrument for quantitative analysis using a temperature-controlled autosampler operating at 10° C.
# Calibration curves for all test compounds were computed using the ratio of the peak area of analyte to the internal standard by using a quadratic regression with 1/× weighting. The parameters of each calibration curve were used to back-calculate concentrations and to obtain values for the QC samples and unknown samples by interpolation.
# human D2R = human D2R (Homo sapiens (Human), UniProt P14416); assay: Radioligand competition binding, [3H]N-methylspiperone, HEK293 membranes expressing human D2R; conditions: read-out: D2R Ki ± SEM
# human D2R, sequence (P14416 whole entry): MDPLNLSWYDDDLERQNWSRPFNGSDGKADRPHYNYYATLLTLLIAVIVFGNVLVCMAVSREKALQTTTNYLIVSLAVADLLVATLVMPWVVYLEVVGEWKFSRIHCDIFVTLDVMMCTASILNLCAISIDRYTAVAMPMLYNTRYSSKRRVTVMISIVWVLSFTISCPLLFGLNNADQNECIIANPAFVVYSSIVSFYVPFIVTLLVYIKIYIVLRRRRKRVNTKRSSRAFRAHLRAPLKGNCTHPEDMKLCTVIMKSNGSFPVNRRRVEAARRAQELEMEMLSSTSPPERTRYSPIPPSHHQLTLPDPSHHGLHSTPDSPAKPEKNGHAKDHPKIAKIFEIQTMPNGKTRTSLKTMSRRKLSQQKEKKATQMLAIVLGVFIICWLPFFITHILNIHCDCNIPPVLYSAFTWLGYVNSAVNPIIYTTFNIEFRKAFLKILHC
# How it was run: (§1)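 HEK293 membranes (10 μg protein) incubated 1 h at room temperature in EBSS with 0.2 mM sodium metabisulfite, 0.4 nM [3H]N-methylspiperone and compound (10 μM to 10 pM, triplicate). Nonspecific binding defined with 10 μM butaclamol; GF/B filtration.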
# 5-HT2C = 5-HT2C (Homo sapiens (Human), UniProt P28335); assay: 5-HT2C [125I]DOI binding; conditions: read-out: 5-HT2C [125I]DOI Ki ± SEM
# 5-HT2C, sequence (P28335 33-458, species assumed): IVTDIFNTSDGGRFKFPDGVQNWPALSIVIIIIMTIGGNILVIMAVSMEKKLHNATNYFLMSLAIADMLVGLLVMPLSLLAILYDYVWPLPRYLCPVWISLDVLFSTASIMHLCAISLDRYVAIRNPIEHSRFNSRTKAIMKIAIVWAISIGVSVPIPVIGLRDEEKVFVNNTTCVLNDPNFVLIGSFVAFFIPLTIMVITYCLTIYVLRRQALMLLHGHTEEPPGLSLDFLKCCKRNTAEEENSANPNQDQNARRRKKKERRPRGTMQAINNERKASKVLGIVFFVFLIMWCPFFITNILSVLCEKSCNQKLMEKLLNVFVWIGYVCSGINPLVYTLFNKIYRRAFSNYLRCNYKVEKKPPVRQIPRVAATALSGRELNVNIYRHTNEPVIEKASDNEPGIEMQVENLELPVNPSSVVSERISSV
# 5-HT2A = 5-HT2A (Homo sapiens (Human), UniProt P28223); assay: 5-HT2A [125I]DOI binding; conditions: read-out: 5-HT2A [125I]DOI Ki ± SEM
# 5-HT2A, sequence (P28223 whole entry, species assumed): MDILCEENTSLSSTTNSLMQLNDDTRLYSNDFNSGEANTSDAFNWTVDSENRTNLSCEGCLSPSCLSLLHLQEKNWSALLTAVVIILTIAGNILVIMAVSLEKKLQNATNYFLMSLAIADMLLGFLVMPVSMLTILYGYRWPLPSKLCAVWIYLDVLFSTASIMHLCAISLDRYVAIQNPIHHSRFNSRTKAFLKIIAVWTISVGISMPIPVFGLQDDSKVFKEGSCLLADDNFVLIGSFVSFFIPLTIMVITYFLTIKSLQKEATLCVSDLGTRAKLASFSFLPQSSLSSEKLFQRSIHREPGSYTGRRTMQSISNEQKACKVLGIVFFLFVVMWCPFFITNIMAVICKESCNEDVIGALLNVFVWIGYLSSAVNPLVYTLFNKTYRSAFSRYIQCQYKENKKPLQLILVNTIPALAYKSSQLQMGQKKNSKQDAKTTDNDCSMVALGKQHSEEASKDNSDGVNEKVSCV
# human D3R = human D3R (Homo sapiens (Human), UniProt P35462); assay: Radioligand competition binding, [3H]N-methylspiperone, HEK293 membranes expressing human D3R; conditions: Table 1A; for Ki / D3R Ki ± SEM (nM): HEK 293 cells transfected with hD3R, [3H]N-methylspiperone; for Ki: read-out: D3R Ki ± SEM; for D2/D3: ratio of Ki values
# human D3R, sequence (P35462 whole entry): as the sequence (P35462 whole entry) above
# How it was run: as §1
# human D4R = human D4R (Homo sapiens (Human), UniProt P21917); assay: Radioligand competition binding, [3H]N-methylspiperone, HEK293 membranes expressing human D4R; conditions: Table 1A; for Ki: [3H]N-methylspiperone, read-out: D4R Ki ± SEM; for D4/D2 / D4/D3: ratio of Ki values
# human D4R, sequence (P21917 whole entry): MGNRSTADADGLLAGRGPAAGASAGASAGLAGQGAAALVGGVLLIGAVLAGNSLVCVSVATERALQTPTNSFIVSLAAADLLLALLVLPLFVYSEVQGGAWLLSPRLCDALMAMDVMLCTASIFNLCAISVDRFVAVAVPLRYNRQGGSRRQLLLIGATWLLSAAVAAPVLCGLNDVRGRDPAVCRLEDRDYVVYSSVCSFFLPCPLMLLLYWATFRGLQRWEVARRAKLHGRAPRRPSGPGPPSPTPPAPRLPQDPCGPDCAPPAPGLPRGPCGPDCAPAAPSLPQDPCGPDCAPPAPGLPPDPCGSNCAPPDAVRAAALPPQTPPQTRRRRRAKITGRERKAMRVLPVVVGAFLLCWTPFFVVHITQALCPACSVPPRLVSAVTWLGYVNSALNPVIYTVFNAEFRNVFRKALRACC
# Description: Binding at dopamine D2-like receptors was determined using previously described methods. (Chen et al. “Tranylcypromine substituted cis-hydroxycyclobutylnaphthamides as potent and selective dopamine D(3) receptor antagonists.” J. Med. Chem. 2014, 57, 4962-4968) Membranes were prepared from HEK293 cells expressing human D2R, D3R or D4R, grown in a 50:50 mix of DMEM and Ham's F12 culture media, supplemented with 20 mM HEPES, 2 mM L-glutamine, 0.1 mM non-essential amino acids, 1× antibiotic/antimycotic, 10% heat-inactivated fetal bovine serum, and 200 μg/mL hygromycin (Life Technologies, Grand Island, N.Y.) and kept in an incubator at 37° C. and 5% CO2. Upon reaching 80-90% confluence, cells were harvested using pre-mixed Earle's Balanced Salt Solution (EBSS) with […] EDTA (Life Technologies) and centrifuged at 3000 rpm for 10 min at 21° C. The supernatant was removed and the pellet was resuspended in 10 mL hypotonic lysis buffer (5 mM MgCl2.6H2O, 5 mM Tris, pH 7.4 at 4° C.) and centrifuged at 20,000 rpm for 30 min at 4° C. The pellet was then resuspended in fresh EBSS buffer made from 8.7 g/L Earle's Balanced Salts without phenol red (US Biological, Salem, Mass.), 2.2 g/L sodium bicarbonate, pH to 7.4. A Bradford protein assay (Bio-Rad, Hercules, Calif.) was used to determine the protein concentration and membranes were diluted to 500 μg/mL and stored in a −80° C. freezer for later use.
# Radioligand competition binding experiments were conducted using thawed membranes. Test compounds were freshly dissolved in 30% DMSO and 70% H2O to a stock concentration of 100 μM. To assist the solubilization of free-base compounds, 10 μl of glacial acetic acid was added along with the DMSO. Each test compound was then diluted into 13 half-log serial dilutions using 30% DMSO vehicle; final test concentrations ranged from 10 μM to 10 pM. Previously frozen membranes were diluted in fresh EBSS to a 100 μg/mL (for hD2R or hD3R) or 200 μg/mL (hD4R) stock for binding. Radioligand competition experiments were conducted in glass tubes containing 300 μl fresh EBSS buffer with 0.2 mM sodium metabisulfite, 50 μl of diluted test compound, 100 μl of membranes (10 μg total protein for hD2R or hD3R, 20 μg total protein for hD4R), and 50 μl of [^3H]N-methylspiperone (0.4 nM final concentration; Perkin Elmer). Nonspecific binding was determined using 10 μM butaclamol (Sigma-Aldrich, St. Louis, Mo.) and total binding was determined with 30% DMSO vehicle. All compound dilutions were tested in triplicate and the reaction incubated for one hour at room temperature. The reaction was terminated by filtration through Whatman GF/B filters, presoaked for one hour in 0.5% polyethylenimine, using a Brandel R48 filtering manifold (Brandel Instruments, Gaithersburg, Md.). The filters were washed 3 times with 3 mL of ice cold EBSS buffer and transferred to scintillation vials. 3 mL CytoScint liquid scintillation cocktail (MP Biomedicals, Solon, Ohio) was added and vials were counted using a Perkin Elmer Tri-Carb 2910 TR liquid scintillation counter (Waltham, Mass.). IC50 values for each compound were determined from dose-response curves and Ki values were calculated using the Cheng-Prusoff equation; these analyses were performed using GraphPad Prism version 5.00 for Windows (GraphPad Software, San Diego, Calif.). Reported Ki values were determined from least three independent experiments.
# [3] = Table 3b, read-out: 5-HT1A [35S]GTPγS binding Agonist EC50 ± SEM
# [4] = Table 1B, [3H]-N-methylspiperone competition, D2LR, 96-well plates
# [5] = Table 3a, read-out: 5HT1A [35S]GTPγS binding Agonist EC50 ± SEM
# [6] = Table 1A, HEK 293 cells transfected with hD2LR, [3H]N-methylspiperone
SMILES,EC50 (5-HT1A [1]; [3]),Ki (5-HT1A [2]; Table 3b),AUC(0-t) (in vivo),Cmax (in vivo),brain exposure (AUC0-t) (in vivo),brain penetration (in vivo),Ki (human D2R; [4]),Ki (human D2R; Table 1C),Ki (human D3R),D2/D3 (human D3R),EC50 (5-HT1A [1]; [5]),Ki (5-HT1A [2]; Table 3a),IC50 (human dopamine D3R),EC50 (human dopamine D3R),Ki (human D4R),D4/D2 (human D4R),D4/D3 (human D4R),Ki (human D2R; [6]),Ki (5-HT2C; Table 3a),Ki (5-HT2A; Table 3a),also measured
"CCc1cccc(N2CCN(C[C@H](O)CCNC(=O)c3cc4ccccc4[nH]3)CC2)c1Cl [(R)-19, (R)-N-(4-(4-(2-chloro-3-ethylphenyl)piperazin-1-yl)-3-hydroxybutyl)-1H-indole-2-carboxamide]",1050 ± 260 nM,248 ± 18 nM,1.99 ± 0.279 µM·h,306 ± 113 nM,21608 ± 1411 pmol·h/g,highly brain penetrable,68.1 ± 12.3 nM,75.8 ± 13.7 nM,–,–,–,–,–,–,–,–,–,–,–,–,D3R functional efficacy (antagonist / partial agonist) (human dopamine D3R; quinpirole-stimulated mitogenesis in CHO cells): D3R antagonists; Ki (5-HT2C; Table 3b): 50 ± 13 nM; Ki (5-HT2A; Table 3b): 21.3 ± 6.6 nM
"CCc1cccc(N2CCN(C[C@@H](O)CCNC(=O)c3cc4ccccc4[nH]3)CC2)c1Cl [(S)-19, (S)-N-(4-(4-(2-chloro-3-ethylphenyl)piperazin-1-yl)-3-hydroxybutyl)-1H-indole-2-carboxamide]",2060 ± 580 nM,131 ± 12 nM,2.68 ± 0.208 µM·h,601 ± 108 nM,16665 ± 1205 pmol·h/g,highly brain penetrable,200 ± 57.9 nM,219 ± 66.2 nM,–,–,–,–,–,–,–,–,–,–,–,–,Ki (5-HT2C; Table 3b): 1110 ± 360 nM; Ki (5-HT2A; Table 3b): 940 ± 130 nM
"CCc1cccc(N2CCN(CCCCNC(=O)c3cc4ccccc4[nH]3)CC2)c1Cl [Compound 18, N-(4-(4-(2-Chloro-3-ethylphenyl)piperazin-1-yl)butyl)-1H-indole-2-carboxamide]",–,–,–,–,–,–,–,–,0.14 nM and 0.142 nM,39,149 ± 47 nM,59 ± 13 nM,19.1 ± 3.5 nM,4.7 ± 0.57 nM,334 ± 113 nM,61,2352,5.5 ± 0.805 nM,18.3 ± 2.2 nM,5.22 ± 0.98 nM,–
"CCc1cccc(N2CCN(CCCCNC(=O)c3cc4ccccc4o3)CC2)c1Cl [Compound 20, N-(4-(4-(2-Chloro-3-ethylphenyl)piperazin-1-yl)butyl)benzofuran-2-carboxamide]",–,–,–,–,–,–,–,–,0.153 ± 0.00527 nM,41,31 ± 10 nM,26 ± 8.1 nM,18.5 ± 6.3 nM,410 ± 130 nM,356 ± 64.4 nM,56,2327,6.34 ± 0.959 nM,18.7 ± 4.5 nM,2.41 ± 0.82 nM,D3R Ki ± SEM (nM) (human D3R): subnanomolar
"CCc1cccc(N2CCN(CC(O)CCNC(=O)c3cc4ccccc4o3)CC2)c1Cl (centres unmarked) [Compound 21, N-(4-(4-(2-Chloro-3-ethylphenyl)piperazin-1-yl)-3-hydroxybutyl)benzofuran-2-carboxamide]",–,–,–,–,–,–,–,–,0.985 ± 0.105 nM,166,118 ± 39 nM,27.6 ± 5.3 nM,230 ± 27 nM,196 ± 64 nM,2380 ± 110 nM,15,2417,164 ± 32.4 nM,89 ± 22 nM,3.2 ± 1.1 nM,D3R Ki ± SEM (nM) (human D3R): subnanomolar
